Data reported in US9309222B2, “Phenyl linked quinolinyl modulators of RORγt” (Janssen Pharmaceutica NV, priority 2012, dated 2016).
“And” between values parts separate entries of the source, which are not always exact repeats. Equal values may be shown once. Where a name gives a salt, the structure may show the parent alone. Blank lines part the entries; values can stand above or below the compound they belong to.

What was measured:
[1] = molecular target: T1, human RORγt ligand binding domain (RORγt LBD) (Homo sapiens, UniProt P51449); assay: RORγt ThermoFluor assay (thermal shift, ligand binding affinity); conditions: estimated from concentration response of thermal shift
T1 construct: His-tag (N); TurboTEV protease cleavage site (ENLYFQG) (N); made in house; host or cells: E. coli (pHIS1, modified pET vector)
T1 sequence (P51449 with tags, fused parts or gaps): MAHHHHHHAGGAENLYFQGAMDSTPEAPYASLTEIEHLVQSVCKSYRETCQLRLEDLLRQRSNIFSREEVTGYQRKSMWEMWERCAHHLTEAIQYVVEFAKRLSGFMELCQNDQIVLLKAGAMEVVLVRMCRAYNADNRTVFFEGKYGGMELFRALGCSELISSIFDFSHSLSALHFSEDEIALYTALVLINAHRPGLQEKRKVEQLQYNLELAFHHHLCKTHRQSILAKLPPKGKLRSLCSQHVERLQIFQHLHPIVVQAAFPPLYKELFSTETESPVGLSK
Outline: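 Thermal shift of 0.065 mg/mL RORγt with 60 μM 1,8-ANS in 100 mM Hepes pH 7.0, 10 mM NaCl, 2.5 mM GSH, 0.002% Tween-20. Compounds in 1:2 series from 10 mM DMSO stock. Dye fluorescence (500 nm emission) tracked versus temperature; ΔTm used to derive KD.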

human RORγt LBD = molecular target: T2, human RORγt LBD (Homo sapiens, UniProt P51449); assay: RORγt reporter assay (GAL4-RORγt LBD luciferase in HEK293T cells); assay type: cell-based; conditions: for IC50 / RORγt reporter Assay, % inhibition @ 6 μM: HEK293T cells; for IC50: 24 hours compound treatment; for inhibition at 6 µM: HEK-293T, read-out: RORγt reporter Assay, % inhibition @ 6 μM, HEK293T cells, 6 μM compound; for RORγt reporter Assay, % inhibition @ 6 μM: 6 μM compound
T2 construct: expressed in transfected cells
T2 sequence (P51449 258-518): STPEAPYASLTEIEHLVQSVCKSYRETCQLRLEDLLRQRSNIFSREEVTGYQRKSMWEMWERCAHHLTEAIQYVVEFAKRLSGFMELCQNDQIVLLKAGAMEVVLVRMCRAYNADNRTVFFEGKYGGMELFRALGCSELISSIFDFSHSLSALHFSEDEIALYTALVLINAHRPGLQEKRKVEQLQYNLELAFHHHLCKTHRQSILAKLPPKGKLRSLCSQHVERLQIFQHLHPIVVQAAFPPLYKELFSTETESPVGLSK
Outline: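 HEK293T cells transiently co-transfected with pBIND (GAL4 DBD fused to wild-type human RORγt LBD, plus SV40-driven renilla luciferase) and pGL4.31 GAL4-responsive firefly luciferase reporter. Plated in phenol-red-free DMEM with 5% lipid-reduced FCS and treated with compound for 24 h. Firefly/renilla luminescence ratio plotted against compound concentration.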

[2] = system: IL-17 production by CD4 T cells; assay: Human Th17 assay (IL-17 production by CD4 T cells under Th17 differentiation conditions); assay type: cell-based; conditions: IL-17 in supernatant after 3 days
Experimental: The human Th17 assay tests the effect of RORγt modulatory compounds on IL-17 production by CD4 T cells under conditions which favor Th17 differentiation. Total CD4^+ T cells were isolated from the peripheral blood mononuclear cells (PBMC) of healthy donors using a CD4^+ T cell isolation kit II, following the manufacturer's instructions (Miltenyi Biotec). […] 50 μL of compound at titrated concentrations in DMSO were added into each well at final DMSO concentration at 0.2%. Cells were incubated for 1 hour, then 50 μL of Th17 cell differentiation medium was added to each well. The final concentrations of antibodies and cytokines (R&D Systems) in differentiation medium were: 3×10^6/mL anti-CD3/CD28 beads (prepared using human T cell activation/expansion kit, Miltenyi Biotec), 10 μg/mL anti-IL4, 10 μg/mL anti-IFNγ, 10 ng/mL IL113, 10 ng/mL IL23, 50 ng/mL IL6, 3 ng/mL TGFβ and 20 U/mL IL2. Cells were cultured at 37° C. and 5% CO2 for 3 days. Supernatants were collected and the accumulated IL-17 in culture was measured by using MULTI-SPOT® Cytokine Plate following manufacture's instruction (Meso Scale Discovery). The plate was read using Sector Imager 6000, and IL-17 concentration was extrapolated from the standard curve. The IC50s were determined by GraphPad.

Compound: OC(c1ccccc1)(c1cccnc1)c1ccc2nc(Cl)c(-c3ccccc3)c(Cl)c2c1 (stereo not shown) [Example 2, (2,4-Dichloro-3-phenylquinolin-6-yl)(phenyl)(pyridin-3-yl)methanol]
- IC50 ([2]; Homo sapiens, CD4+ T, 72 h): 0.62 µM
- IC50 [2]: ~0.7 µM

Compound: Cn1cncc1C(O)(c1ccncc1)c1ccc2nc(Cl)c(-c3ccccc3)c(Cl)c2c1 (stereo not shown) [Example 16, (2,4-Dichloro-3-phenylquinolin-6-yl)(1-methyl-1H-imidazol-5-yl)(pyridin-4-yl)methanol]
- IC50 ([2]; Homo sapiens, CD4+ T, 72 h): 0.13 µM

Compound: CN(C)c1nc2ccc(C(O)(c3ccncc3)c3cncn3C)cc2c(Cl)c1-c1ccccc1 (stereo not shown) [Example 48a, (4-Chloro-2-(dimethylamino)-3-phenylquinolin-6-yl)(1-methyl-1H-imidazol-5-yl)pyridin-4-ylmethanol•TFA]
- IC50 ([2]; Homo sapiens, CD4+ T, 72 h): 0.019 µM

Compound: Cn1cncc1C(O)(c1cccnc1)c1ccc2nc(Cl)c(-c3ccccc3)c(Cl)c2c1 (stereo not shown) [Example 49, (2,4-Dichloro-3-phenylquinolin-6-yl)(1-methyl-1H-imidazol-5-yl)(pyridin-3-yl)methanol]
- IC50 ([2]; Homo sapiens, CD4+ T, 72 h): 0.41 µM

Compound: Cc1cc(C(O)(c2ccc3nc(Cl)c(-c4ccccc4)c(Cl)c3c2)c2cncn2C)ccn1 (stereo not shown) [Example 67, (2,4-Dichloro-3-phenylquinolin-6-yl)(1-methyl-1H-imidazol-5-yl)(2-methylpyridin-4-yl)methanol•TFA]
- IC50 ([2]; Homo sapiens, CD4+ T, 72 h): 0.027 µM

Compound: Cn1cncc1C(O)(c1ccnc(F)c1)c1ccc2nc(Cl)c(-c3ccccc3)c(Cl)c2c1 (stereo not shown) [Example 86, (2,4-Dichloro-3-phenylquinolin-6-yl)(2-fluoropyridin-4-yl)(1-methyl-1H-imidazol-5-yl)methanol•TFA]
- IC50 ([2]; Homo sapiens, CD4+ T, 72 h): 0.037 µM

Compound: Cc1nc(C)c(C(O)(c2ccc3nc(Cl)c(-c4ccccc4)c(Cl)c3c2)c2cncn2C)s1 (stereo not shown) [Example 143, (2,4-Dichloro-3-phenylquinolin-6-yl)(2,4-dimethylthiazol-5-yl)(1-methyl-1H-imidazol-5-yl)methanol]
- IC50 ([2]; Homo sapiens, CD4+ T, 72 h): 0.02 µM

More lines, now with the values ahead:

- Kd [1]: 0.071 µM
- IC50 (human RORγt LBD): 0.23 µM and ~0.4 µM
- inhibition at 6 µM (human RORγt LBD): 96%
- IC50 ([2]; Homo sapiens, CD4+ T, 72 h): 0.48 µM
- IC50 [2]: ~0.7 µM
Compound: Cn1cncc1C(O)(c1ccc(Cl)cc1)c1ccc2nc(Cl)c(-c3ccccc3Cl)c(Cl)c2c1 (racemic) [Example 153a, (4-Chlorophenyl)(2,4-dichloro-3-(2-chlorophenyl)quinolin-6-yl)(1-methyl-1H-imidazol-5-yl)methanol]

- Kd [1]: 0.0081 µM
- IC50 (human RORγt LBD): 0.072 µM
- inhibition at 6 µM (human RORγt LBD): 96%
- IC50 ([2]; Homo sapiens, CD4+ T, 72 h): 0.066 µM
Compound: CC(=O)N1CCC(C(O)(c2ccccc2)c2ccc3nc(C(F)(F)F)c(-c4ccccc4)c(C(F)(F)F)c3c2)CC1 (racemic) [Example 169a, 1-(4-(Hydroxy(phenyl)(3-phenyl-2,4-bis(trifluoromethyl)quinolin-6-yl)methyl)piperidin-1-yl)ethanone]

- Kd [1]: 0.27 µM
- RORγt reporter Assay, % inhibition @ 6 μM (human RORγt LBD): 93%
- IC50 (human RORγt LBD): 0.69 µM
- IC50 [2]: 1.6 µM
Compound: Cn1cncc1C(O)(c1ccc(Cl)cc1)c1ccc2nc(Cl)c(-c3ccccc3Cl)c(Cl)c2c1 (single isomer, unassigned) [Example 153b, (4-Chlorophenyl)(2,4-dichloro-3-(2-chlorophenyl)quinolin-6-yl)(1-methyl-1H-imidazol-5-yl)methanol]

- Kd [1]: 0.019 µM
- RORγt reporter Assay, % inhibition @ 6 μM (human RORγt LBD): 96%
- IC50 (human RORγt LBD): 0.14 µM
- IC50 [2]: 0.25 µM
Compound: Cn1cncc1C(O)(c1ccc(Cl)cc1)c1ccc2nc(Cl)c(-c3ccccc3Cl)c(Cl)c2c1 (single isomer, unassigned) [Example 153c, (4-Chlorophenyl)(2,4-dichloro-3-(2-chlorophenyl)quinolin-6-yl)(1-methyl-1H-imidazol-5-yl)methanol]

- Kd [1]: 0.003 µM
- IC50 (human RORγt LBD): 0.0038 µM
- inhibition at 6 µM (human RORγt LBD): 94%
- IC50 [2]: 0.027 µM
Compound: CC(=O)N1CCC(C(O)(c2ccccc2)c2ccc3nc(C(F)(F)F)c(-c4ccccc4)c(C(F)(F)F)c3c2)CC1 (single isomer, unassigned) [Example 169b, 1-(4-(Hydroxy(phenyl)(3-phenyl-2,4-bis(trifluoromethyl)quinolin-6-yl)methyl)piperidin-1-yl)ethanone]

- Kd [1]: 0.052 µM
- RORγt reporter Assay, % inhibition @ 6 μM (human RORγt LBD): 96%
- IC50 (human RORγt LBD): 0.1 µM
- IC50 [2]: 0.11 µM
Compound: CC(=O)N1CCC(C(O)(c2ccccc2)c2ccc3nc(C(F)(F)F)c(-c4ccccc4)c(C(F)(F)F)c3c2)CC1 (single isomer, unassigned) [Example 169c, 1-(4-(Hydroxy(phenyl)(3-phenyl-2,4-bis(trifluoromethyl)quinolin-6-yl)methyl)piperidin-1-yl)ethanone]

- RORγt reporter Assay, % inhibition @ 6 μM (human RORγt LBD): 95%
- IC50 ([2]; Homo sapiens, CD4+ T, 72 h): 0.13 µM
Compound: Cn1cncc1C(O)(c1ccc(C(F)(F)F)nc1)c1ccc2nc(C(F)(F)F)c(-c3ccccc3)c(C#N)c2c1 (single isomer, unassigned) [Example 173c, 6-(Hydroxy(1-methyl-1H-imidazol-5-yl)(6-(trifluoromethyl)pyridin-3-yl)methyl)-3-phenyl-2-(trifluoromethyl)quinoline-4-carbonitrile]

- Kd [1]: 0.064 µM
- RORγt reporter Assay, % inhibition @ 6 μM (human RORγt LBD): 95%
- IC50 (human RORγt LBD): 0.14 µM
- IC50 ([2]; Homo sapiens, CD4+ T, 72 h): 0.11 µM
Compound: Cc1cc(C(O)(c2ccc(F)cc2)c2cncn2C)cc2c(C#N)c(-c3cccc(F)c3)c(C#N)nc12 (single isomer, unassigned) [Example 175c, 3-(3-Fluorophenyl)-6-((4-fluorophenyl)(hydroxy)(1-methyl-1H-imidazol-5-yl)methyl)-8-methylquinoline-2,4-dicarbonitrile]

- Kd [1]: 0.068 µM
- RORγt reporter Assay, % inhibition @ 6 μM (human RORγt LBD): 95%
- IC50 (human RORγt LBD): 0.32 µM
- IC50 ([2]; Homo sapiens, CD4+ T, 72 h): 0.31 µM
Compound: Cc1cc(C(O)(c2ccc(C(F)(F)F)nc2)c2cncn2C)cc2c(C#N)c(-c3cccc(F)c3)c(C#N)nc12 (single isomer, unassigned) [Example 176c, 3-(3-Fluorophenyl)-6-(hydroxy(1-methyl-1H-imidazol-5-yl)(6-(trifluoromethyl)pyridin-3-yl)methyl)-8-methylquinoline-2,4-dicarbonitrile]

- Kd [1]: 0.022 µM
- IC50 (human RORγt LBD): 0.4 µM
- inhibition at 6 µM (human RORγt LBD): 83%
- IC50 [2]: 0.2 µM
Compound: COc1nc2c(C)cc(C(O)(c3ccc(C(F)(F)F)nc3)c3cncn3C)cc2c(Cl)c1-c1cccc(F)c1 (single isomer, unassigned) [Example 177b, (4-Chloro-3-(3-fluorophenyl)-2-methoxy-8-methylquinolin-6-yl)(1-methyl-1H-imidazol-5-yl)(6-(trifluoromethyl)pyridin-3-yl)methanol]

- Kd [1]: 1.3 µM
- RORγt reporter Assay, % inhibition @ 6 μM (human RORγt LBD): 98%
- IC50 (human RORγt LBD): 0.36 µM
- IC50 [2]: 2.5 µM
Compound: COc1nc2c(C)cc(C(O)(c3ccc(C(F)(F)F)nc3)c3cncn3C)cc2c(Cl)c1-c1cccc(F)c1 (single isomer, unassigned) [Example 177c, (4-Chloro-3-(3-fluorophenyl)-2-methoxy-8-methylquinolin-6-yl)(1-methyl-1H-imidazol-5-yl)(6-(trifluoromethyl)pyridin-3-yl)methanol]

- Kd [1]: 0.029 µM
- RORγt reporter Assay, % inhibition @ 6 μM (human RORγt LBD): 96%
- IC50 (human RORγt LBD): 0.035 µM
- IC50 ([2]; Homo sapiens, CD4+ T, 72 h): 0.045 µM
Compound: COc1nc2c(C)cc(C(O)(c3ccc(F)cc3)c3cncn3C)cc2c(Cl)c1-c1cccc(F)c1 (single isomer, unassigned) [Example 178c, (4-Chloro-3-(3-fluorophenyl)-2-methoxy-8-methylquinolin-6-yl)(4-fluorophenyl)(1-methyl-1H-imidazol-5-yl)methanol]
